The source of these data is patent US20230050965A1, “SSTR5 ANTAGONISTS” (Kallyope, Inc., priority 2019, published 2023).

Bounds are passed on as bounds.

T1 sequence (P35346 whole entry): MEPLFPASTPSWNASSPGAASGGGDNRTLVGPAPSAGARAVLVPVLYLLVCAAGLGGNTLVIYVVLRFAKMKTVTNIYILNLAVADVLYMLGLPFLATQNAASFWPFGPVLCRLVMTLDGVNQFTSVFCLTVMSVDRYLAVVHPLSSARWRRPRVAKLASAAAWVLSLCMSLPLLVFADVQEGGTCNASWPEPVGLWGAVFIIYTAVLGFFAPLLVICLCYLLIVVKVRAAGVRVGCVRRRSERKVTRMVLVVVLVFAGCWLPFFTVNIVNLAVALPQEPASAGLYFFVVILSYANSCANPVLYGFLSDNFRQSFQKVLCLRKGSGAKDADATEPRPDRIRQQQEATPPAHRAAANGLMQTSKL

The test has as its target T1, human SSTR5 (Homo sapiens, UniProt P35346).
T1 construct: expressed in transfected cells
In words: Inositol phosphate (IP1) accumulation assay, antagonist mode. Type of test: cell-based. Particulars: CHO-K1 cells stably co-expressing human SSTR5 with Gqi5; pre-incubation with antagonist, then SST28 agonist; IP1 HTRF readout. The text has this:
Inositol Phosphate Accumulation Assay
CHO-K1 cells stably co-expressing human SSTR5 with Gqi5 were developed using Jump-In technology from Thermo-Fisher. Gqi5 is the mouse G alpha q protein, that was modified to interact with Gi-coupled GPCRs as described previously (Coward, P.; Chan, S. D.; Wada, H. G.; Humphries, G. M.; Conklin, B. R. Chimeric G proteins Allow a High-Throughput Signaling Assay of Gi-Coupled Receptors. Anal Biochem. 1999, 270(2), 242-248).
Co-expression of Gqi5 with SSTR5 allowed monitoring of SSTR5 activity by following IP1 accumulation. The assay was performed in a 384-well plate format using the IP1 assay kit from Cis-Bio in an antagonist mode, i.e., pre-incubation with antagonist following by receptor activation by agonist at a concentration generating 90% of full activation. Frozen cells expressing human SSTR5 were thawed, washed, and then plated in DMEM supplemented with 10% FBS and non-essential amino acids. 40 μL of 2.5×10^5 cells/mL were plated on a Poly D-Lysine coated 384-well white plate. The cells were then incubated for 16 hr. at 37° C./5% CO2. After 16 hour the medium was removed, and 10 μL of stimulation buffer was added to the cells. Test compounds were dissolved in DMSO at concentrations 2000-fold that of the final assay concentrations. 7.5 nL compound solutions were transferred to the cell plates using a Labcyte Echo® acoustic liquid handler. The plates were then incubated for 15 minutes at 37° C./5% CO2. After the first incubation, 5 μL of 30 nM SST28 were added to the cells, and the cells were incubated for 90 minutes at 37° C./5% CO2. 5 μL of detection buffer (prepared as described in the IP-1 kit) was added to each well, and the plates were incubated at RT for 1 hour.
TR-FRET was measured using a ClarioSTAR plate reader, calculating the ratio between emissions at 665 nm and 620 nm (HTRF ratio). The HTRF ratio for positive (Max) and negative (Min) controls were used to normalize HTRF data and generate values for % inhibition. IC50 and maximal inhibition values were determined using a standard 4-parameter fit.
On to `CCOc1cc(-c2ccc(F)cc2)c(C2CC2)cc1CN1CCC2(CC1)CN(c1ccc(P(=O)(O)O)cn1)C(=O)O2` [Compound 5, (6-(8-((2-cyclopropyl-5-ethoxy-4′-fluoro-[1,1′-biphenyl]-4-yl)methyl)-2-oxo-1-oxa-3,8-diazaspiro[4.5]decan-3-yl)pyridin-3-yl)phosphonic acid], for which the half-inhibitory concentration (IC50) is at most 100 nM.
Next, `CCOc1cc(-c2ccc(F)cc2)c(C2CC2)cc1CN1CCC2(CC1)CN(C13CC(CP(=O)(O)O)(C1)C3)C(=O)O2` [Compound 12, ((3-(8-((2-cyclopropyl-5-ethoxy-4′-fluoro-[1,1′-biphenyl]-4-yl)methyl)-2-oxo-1-oxa-3,8-diazaspiro[4.5]decan-3-yl)bicyclo[1.1.1]pentan-1-yl)methyl)phosphonic acid]: at most 100 nM.
Take `CCOc1cc(-c2ccc(F)cc2)c(C2CC2)cc1CN1CCC2(CC1)CN(c1ccc(CCNC(=N)NC(=N)N)cc1)C(=O)O2` [Compound 14, 1-carbamimidoyl-3-[2-[4-[8-[[5-cyclopropyl-2-ethoxy-4-(4-fluorophenyl)phenyl]methyl]-2-oxo-1-oxa-3,8-diazaspiro[4.5]decan-3-yl]phenyl]ethyl]guanidine]: the IC50 is at most 100 nM.
In turn, `CCOc1cc(-c2ccc(F)cc2)c(C2CC2)cc1CN1CCN(C(=O)Cc2ccc(P(=O)(O)O)cc2)CC1` [Compound 41, (4-(2-(4-((2-cyclopropyl-5-ethoxy-4′-fluoro-[1,1′-biphenyl]-4-yl)methyl)piperazin-1-yl)-2-oxoethyl)phenyl)phosphonic acid] displayed an IC50 of at most 100 nM.
As for `CCOc1cc(-c2ccc(F)cc2)c(C2CC2)cc1CN1CCN(S(=O)(=O)Cc2ccc(P(=O)(O)O)cc2)CC1` [Compound 38, (4-(((4-((2-cyclopropyl-5-ethoxy-4′-fluoro-[1,1′-biphenyl]-4-yl)methyl)piperazin-1-yl)sulfonyl)methyl)phenyl)phosphonic acid], the IC50 was at most 100 nM.
Next, `CCOc1cc(C(=O)OC)c(C2CC2)cc1CN1CCC2(CC1)CC(=O)N(c1ccc(P(=O)(O)O)cc1)C2` [Compound 23, (4-(8-(5-cyclopropyl-2-ethoxy-4-(methoxycarbonyl)benzyl)-3-oxo-2,8-diazaspiro[4.5]decan-2-yl)phenyl)phosphonic acid]: above 5000 nM; `CCOc1cc(-c2ccc(F)cc2)c(C2CC2)cc1CN1CCC2(CC1)CN(c1ccc(P(=O)(O)OCC)cc1)C(=O)N2` [Compound 25, ethyl hydrogen (4-(8-((2-cyclopropyl-5-ethoxy-4′-fluoro-[1,1′-biphenyl]-4-yl)methyl)-2-oxo-1,3,8-triazaspiro[4.5]decan-3-yl)phenyl)phosphonate]: at most 100 nM.
`CCOc1cc(C(=O)OC)c(C2CC2)cc1CN1CCC2(CC1)CC(=O)N(c1ccc(CCCCNC=O)cc1)C2` [Compound 17, methyl 2-cyclopropyl-5-ethoxy-4-((2-(4-(4-formamidobutyl)phenyl)-3-oxo-2,8-diazaspiro[4.5]decan-8-yl)methyl)benzoate]: the IC50 fell in the range of 100 to 1000 nM.
As for `CCOc1cc(C(=O)OC(C)C)c(C2CC2)cc1CN1CCC2(CC1)CC(=O)N(c1ccc(P(=O)(O)O)cc1)C2` [Compound 24, (4-(8-(5-cyclopropyl-2-ethoxy-4-(isopropoxycarbonyl)benzyl)-3-oxo-2,8-diazaspiro[4.5]decan-2-yl)phenyl)phosphonic acid], the IC50 lay within 100 to 1000 nM.
Take `CCOc1cc(-c2nc(C)no2)c(C2CC2)cc1CN1CCC2(CC1)CN(c1ccc(P(=O)(O)O)cc1)C(=O)O2` [Compound 26, (4-(8-(5-cyclopropyl-2-ethoxy-4-(3-methyl-1,2,4-oxadiazol-5-yl)benzyl)-2-oxo-1-oxa-3,8-diazaspiro[4.5]decan-3-yl)phenyl)phosphonic acid]: the IC50 is at most 100 nM.
`CCOc1cc(-c2ccc(F)cc2)c(C2CC2)cc1CN1CCC2(CC1)CN(c1ccc(CP(=O)(O)O)cc1)C(=O)O2` [Compound 30, (4-(8-((2-cyclopropyl-5-ethoxy-4'-fluoro-[1,1'-biphenyl]-4-yl)methyl)-2-oxo-1-oxa-3,8-diazaspiro[4.5]decan-3-yl)benzyl)phosphonic acid] displayed an IC50 of at most 100 nM.
Next, `CCOc1cc(C(=O)OC)c(C2CC2)cc1CN1CCC2(CC1)CC(=O)N(c1ccc(CCCCNC(=O)NC(CO)(CO)CO)cc1)C2` [Compound 16, methyl 2-cyclopropyl-4-((2-(4-(4-(3-(1,3-dihydroxy-2-(hydroxymethyl)propan-2-yl)ureido)butyl)phenyl)-3-oxo-2,8-diazaspiro[4.5]decan-8-yl)methyl)-5-ethoxybenzoate]: above 5000 nM; `CCOc1cc(-c2ccc(F)cc2)c(C2CC2)cc1CN1CCC2(CC1)CN([C@H]1CC[C@H](P(=O)(O)O)CC1)C(=O)O2` (single isomer, unassigned) [Compound 34, ((trans)-4-(8-((2-cyclopropyl-5-ethoxy-4'-fluoro-[1,1'-biphenyl]-4-yl)methyl)-2-oxo-1-oxa-3,8-diazaspiro[4.5]decan-3-yl)cyclohexyl)phosphonic acid]: at most 100 nM.
The compound `CCOc1cc(-c2ccc(F)cc2)c(C2CCC2)cc1CN1CCC2(CC1)CN(c1ccc(P(=O)(O)O)cc1)C(=O)O2` [Compound 36, (4-(8-((2-cyclobutyl-5-ethoxy-4'-fluoro-[1,1'-biphenyl]-4-yl)methyl)-2-oxo-1-oxa-3,8-diazaspiro[4.5]decan-3-yl)phenyl)phosphonic acid] registered an IC50 of at most 100 nM.
Compound `CCOc1cc(-c2ccc(F)cc2)c(C2CC2)cc1CN1CCN(C(=O)Cc2ccc(P(=O)(O)OCC)cc2)CC1` [Compound 40, ethyl hydrogen (4-(2-(4-((2-cyclopropyl-5-ethoxy-4′-fluoro-[1,1′-biphenyl]-4-yl)methyl)piperazin-1-yl)-2-oxoethyl)phenyl)phosphonate] registered a concentration for half-maximal inhibition (IC50) of at most 100 nM.
In the case of `CCOc1cc(-c2ccc(F)cc2)c(C2CC2)cc1CN1CCC2(CC1)CN(c1ccc(B(O)O)cc1)C(=O)O2` [Compound 13, (4-(8-((2-cyclopropyl-5-ethoxy-4′-fluoro-[1,1′-biphenyl]-4-yl)methyl)-2-oxo-1-oxa-3,8-diazaspiro[4.5]decan-3-yl)phenyl)boronic acid], the IC50 was at most 100 nM.
With `CCOc1cc(-c2ccc(F)cc2)c(C2CC2)cc1CN1CCC2(CC1)CN(c1ccc(P(=O)(O)O)cc1)C(=O)N2` [Compound 22, (4-(8-((2-cyclopropyl-5-ethoxy-4′-fluoro-[1,1′-biphenyl]-4-yl)methyl)-2-oxo-1,3,8-triazaspiro[4.5]decan-3-yl)phenyl)phosphonic acid], the concentration for half-maximal inhibition (IC50) is at most 100 nM.
Next, `CCOc1cc(-c2ccc(F)cc2)c(C2CC2)cc1CN1CCC2(CC1)CN(c1ccc(CNC[C@H](O)[C@@H](O)[C@H](O)[C@H](O)CO)cc1)C(=O)O2` [Compound 32, 8-((2-cyclopropyl-5-ethoxy-4'-fluoro-[1,1'-biphenyl]-4-yl)methyl)-3-(4-((((2S,3R,4R,5R)-2,3,4,5,6-pentahydroxyhexyl)amino)methyl)phenyl)-1-oxa-3,8-diazaspiro [4.5]decan-2-one]: at most 100 nM; `CCOc1cc(-c2nc(C)no2)c(C2CC2)cc1CN1CCC2(CC1)CN(c1ccc(P(=O)(O)O)cc1)C(=O)N2` [Compound 27, (4-(8-(5-cyclopropyl-2-ethoxy-4-(3-methyl-1,2,4-oxadiazol-5-yl)benzyl)-2-oxo-1,3,8-triazaspiro[4.5]decan-3-yl)phenyl)phosphonic acid]: at most 100 nM.
